Test results reported in patent US8334312B2, “Fungicidal mixtures for wood preservation” (LANXESS Deutschland GmbH, priority 2005, dated 2012).

Legend:
Experiment in all cases: Mycelium radial growth inhibition on malt extract/peptone agar (MIC) and Kull synergism
Type in all cases: cell-based
Gloeophyllum trabeum = tested on: Gloeophyllum trabeum
Procedure: (§1) Mycelium pieces were punched out of colonies of the wood-destroying organisms Coriolus versicolor, Poria placenta, Gloeophyllum trabeum and Cornophora puteana and incubated at 26° C. on a malt extract/peptone-containing nutrient agar. Here, the growth of the fungal threads with and without added active compound was compared. The stated minimum inhibitory concentration (MIC) is the active compound concentration at which the radial growth of the fungal threads is suppressed completely. Using the method described by Kull et al. (F. C. Kull, […]. Mayer, Applied Microbiology 9, 538 to 541, 1961), the synergism was determined. Here, the following relations apply: […]

Poria placenta = conditions: 26° C. agar
Procedure: as §1

Coriolus versicolor = conditions: for Qa = concentration of substance A which is the MIC: 26° C. agar; for Qb = concentration of substance B which is the MIC: b = triadimefon alone
Procedure: as §1

Coniophora puteana = conditions: 26° C. agar
Procedure: as §1

## CC(C)(C)C(O)C(Oc1ccc(Cl)cc1)n1cncn1 (racemic) [triadimenol, (±)-1-(4-chlorophenoxy)-3,3-dimethyl-1-(1H-1,2,4-triazol-1-yl) butan-2-ole]
Gloeophyllum trabeum; a = triadimenol alone, 26° C. agar
  Qa = concentration of substance A which is the MIC: 1
Poria placenta; a = triadimenol alone
  Qa = concentration of substance A which is the MIC: 1

## CCCC1COC(Cn2cncn2)(c2ccc(Cl)cc2Cl)O1 (centres unmarked) [propiconazole]
Coriolus versicolor; a = propiconazole alone
  Qa = concentration of substance A which is the MIC: 3
Poria placenta; a = propiconazole alone
  Qa = concentration of substance A which is the MIC: 1

## CC(C)(C)C(=O)C(Oc1ccc(Cl)cc1)n1cncn1 (racemic) [triadimefon, (±)-1-(4-chlorophenoxy)-3,3-dimethyl-1-(1H-1,2,4-triazol-1-yl)butan-2-one]
Coriolus versicolor; 26° C. agar (Example 2)
  Qb = concentration of substance B which is the MIC: 6
Coriolus versicolor; 26° C. agar (Example 3)
  Qb = concentration of substance B which is the MIC: 3
Coniophora puteana; b = triadimefon alone
  Qb = concentration of substance B which is the MIC: 30
Gloeophyllum trabeum; b = triadimefon alone, 26° C. agar
  Qb = concentration of substance B which is the MIC: 30
Poria placenta; b = triadimefon alone
  Qb = concentration of substance B which is the MIC: 3

## CC(C)(C)C(O)(CCc1ccc(Cl)cc1)Cn1cncn1 (centres unmarked) [tebuconazole]
Coriolus versicolor; a = tebuconazole alone
  Qa = concentration of substance A which is the MIC: 0.3
Coniophora puteana; a = tebuconazole alone
  Qa = concentration of substance A which is the MIC: 6
Gloeophyllum trabeum; a = tebuconazole alone, 26° C. agar (Example 3)
  Qa = concentration of substance A which is the MIC: 0.5
Gloeophyllum trabeum; b = tebuconazole alone, 26° C. agar (Example 1)
  Qb = concentration of substance B which is the MIC: 0.7
Poria placenta; b = tebuconazole alone
  Qb = concentration of substance B which is the MIC: 1
